Consider 23 molecules from ChEMBL document CHEMBL4831532.

A short description of series [1]: Binding affinity to SARS-CoV-2 3CL protease. The arrangement: species or system Severe acute respiratory syndrome coronavirus 2.
Series [2] concerns SARS-CoV-2. In words: microbe, parasite or virus in culture. As to conditions: Severe acute respiratory syndrome coronavirus 2, JPN/TY/WK-251, Vero C1008, 72 h.
A short description of series [3]: Inhibition of SARS-CoV-2 3CL protease using HiyteFluor-488ESATL-QSGLRKAK-(QXL)-NH2 fluorogenic peptide as substrate preincubated for 15 mins followed by substrate addition and measured after 30 mins by FRET assay. Further details: species or system Severe acute respiratory syndrome coronavirus 2.
The subject of series [4] is SARS-CoV-2. It is filed as functional, Severe acute respiratory syndrome coronavirus 2, JPN/TY/WK-251, Vero E6.
Series [5] has as its system Vero C1008. In words: Cytotoxicity against African green monkey Vero E6 cells incubated for 3 days. It counts as cell-based. The conditions noted are these: chlorocebus sabaeus, vero c1008, 72 h; time 3 day.
The subject of series [6] is SARS-CoV-2. It counts as functional, Severe acute respiratory syndrome coronavirus 2, JPN/TY/WK-251, Vero E6. As to conditions: dose 1-100 µM; time 72 hrs; at 1 to 100 µM.
Series [7] deals with SARS-CoV-2. It is filed as functional, organism-based. As to conditions: Severe acute respiratory syndrome coronavirus 2; JPN/TY/WK-251; Vero E6; dose 10.0 µM, time 3.0 day.

The source made the active and inactive calls. No cut-off for these calls is given here.

`COc1cccc2[nH]c(C(=O)N[C@@H](CC(C)C)C(=O)N[C@@H](C[C@@H]3CCNC3=O)C(=O)c3nc4ccccc4s3)cc12` came in with a Ki in series [1] of 0.0176 µM. Regarding `Cc1ncc(OC(=O)c2cccc3[nH]ccc23)cc1Cl`, a half-maximal response in series [2] (EC50) required 30 µM. `Cc1ncc(OC(=O)c2cccc3[nH]cnc23)cc1Cl` returned an EC50 in series [2] of 57 µM. The same measure, in the same setting: in the case of `O=C(Nc1cncc(Cl)c1)c1cccc2[nH]ccc12` it was over 100 µM; in that of `Cc1cc(C(=O)Oc2cncc(Cl)c2)c2cc[nH]c2c1`, 3.1 µM. On to `O=C(Oc1cncc(Cl)c1)c1ccc2c(ccn2S(=O)(=O)c2cccc([N+](=O)[O-])c2)c1`, for which the EC50 in series [2] was found to be 69.8 µM. The molecule `O=C(Nc1cccc(Cl)c1)c1cccc2[nH]ccc12` displayed an EC50 in series [2] of over 100 µM. The same molecule yielded a concentration for half-maximal inhibition (IC50) in series [3] of 100 µM.

Consider `O=C(Oc1cncc(Cl)c1)c1cccc2[nH]ccc12`, for which the Activity in series [4] (dose 100 µM, time 3 day) is 100%; in series [6] it was 100%. Moreover, in series [5], the 50% cytotoxic concentration (CC50) was over 100 µM. Further, the result in series [7] was Active.

For `O=C(Oc1cncc(Cl)c1)c1cccc2c1OCCN2`, the EC50 in series [2] is over 100 µM. In turn, `O=C(Oc1cncc(Cl)c1)c1cccc2c1CCN2` gave an Activity in series [4] (dose 100 µM, time 3 day) of 100%. The molecule further returned a concentration giving a half-maximal response (EC50) in series [2] of 15 µM. The molecule further registered an IC50 in series [3] of 0.32 µM. The result in series [7] was Active. `Cc1c(Cl)cncc1OC(=O)c1cccc2[nH]ccc12` yielded a 50% effective concentration (EC50) in series [2] of 19.3 µM.

`O=C(Oc1cncc(Cl)c1)c1ccc2[nH]ccc2c1`: in series [2], the midpoint of the response, the EC50, lay at 43.7 µM.

`Cc1nc2c(C(=O)Oc3cncc(Cl)c3)cccc2[nH]1` returned an EC50 in series [2] of 57.1 µM. Same read-out and setting: in the case of `COc1cccc2[nH]c(C(=O)Oc3cncc(Cl)c3)cc12` it was 8.1 µM. As for `Cc1c[nH]c2cccc(C(=O)Oc3cncc(Cl)c3)c12`, the 50% effective concentration (EC50) in series [2] amounted to 56.7 µM.

Regarding `Cc1ccc2[nH]ccc2c1C(=O)Oc1cncc(Cl)c1`, the EC50 in series [2] was over 100 µM. Turning to `CCC(CC)COC(=O)[C@H](C)N[P@](=O)(OC[C@H]1O[C@@](C#N)(c2ccc3c(N)ncnn23)[C@H](O)[C@@H]1O)Oc1ccccc1`, the Activity entry is “Active” in series [4] (Severe acute respiratory syndrome coronavirus 2, JPN/TY/WK-251, Vero E6, dose 100.0 µM, time 3.0 day) and “Active” in series [7]. Moreover, in series [6], the Activity is 100%. For `O=C(Oc1cncc(Cl)c1)c1cc(F)cc2[nH]ccc12`, in series [2], the EC50 amounted to 14 µM.

Molecule `C=CCc1cn(CC=C)c2cccc(C(=O)Oc3cncc(Cl)c3)c12` displayed an EC50 in series [2] of 11.5 µM. `Cc1ncc(Cl)cc1OC(=O)c1cccc2[nH]ccc12`: the EC50 in series [2] is over 100 µM. In series [3], this molecule yielded an IC50 of over 100 µM.

Take `O=C(Oc1cncc(Cl)c1)c1cccc2[nH]cnc12`: the EC50 in series [2] was over 100 µM. Same read-out and setting: the value for `C=CCn1ccc2c(C(=O)Oc3cncc(Cl)c3)cccc21` was 15 µM. Same read-out and setting: the value for `O=C(Oc1cncc(Cl)c1)c1cccc2ncoc12` was over 100 µM.

A word on the Ki: it is a dissociation constant, usually derived from enzyme kinetics or from competition with a known ligand. Broadly, the EC50 is the concentration that produces a half-maximal response. For orientation: IC50 means the point on the concentration scale where inhibition reaches its midpoint. As a reminder, the CC50 is the concentration that lowers cell viability or growth by half.
